The source of these data is patent US11707440B2 (priority 2017, dated 2023).

For series [1] the following is noted: for Stock solution stability: stock solutions. The text has this: This example provides an LC-MS/MS method for the determination of ketamine and norketamine in sodium heparin human plasma using ketamine-d4 and norketamine-d4 as the respective internal standards (IS).
Series [2] relates to adult female Sprague Dawley rats, PCG/RSC. The settings on record: 3 hours after a single intraperitoneal injection (Jevtovic-Todorovic 2000); cited from earlier work.
The subject of the next series is NMDA receptor. The settings on record: cited from earlier work.

Where two headings read alike, the source gives them in different places.

On to `CNC1(c2ccccc2Cl)CCCCC1=O` (racemic) [ketamine, reference compound], for which the entries for the “QC sample freeze/thaw stability” value in series [1] (freeze (−20° C.)/thaw (ice-water bath)) and in series [1] (freeze (−20° C.)/thaw (room temperature)) were 3 freeze (−20° C.)/thaw (ice-water bath) cycles and 3 freeze (−20° C.)/thaw (room temperature) cycles, respectively. Besides, the “QC sample bench-top stability” value in series [1] (human plasma, room temperature) worked out at 68.5 hours at room temp. In addition, the “QC sample long-term storage stability” value in series [1] (human plasma, −20° C.) was determined as 1552 days at −20 °C. The molecule also displayed a Processed sample stability in series [1] (room temperature) of 146.5 hours at room temperature. In addition, in series [1] (room temperature and ice-water bath (0-4° C.)), the “Whole Blood Stability” value is 120 minutes at room temperature and in an ice-water bath. Moreover, in series [1] (spike solutions, −20° C.), the “Stock solution stability (spike solutions)” value is 610 days at −20 °C for ketamine/norketamine spike solutions. Besides, the results for the Stock solution stability in series [1] (room temperature under white light) and in series [1] (−20° C.) were 6 h and 15100 h, respectively. The “ED50-value for the induction of neuronal vacuolation in the PCG/RSC” value in series [2] was 47.5 mg/kg body weight.
On to (+)MK-801 maleate, for which the “Potency of the (+)-enantiomer relative to the (−)-enantiomer” value with NMDA receptor is given as 7 times.
